Active and inactive are the calls of the source. The rule behind the calls is not given here.
System: CCRIS mutagenicity, Ames/micronucleus/aberration tests
Assay: CCRIS mutagenicity studies
[1] = Test System: AMES SALMONELLA TYPHIMURIUM, Strain/Indicator: TA98, Metabolic Activation: NONE, Method: PREINCUBATION
[2] = Test System: AMES SALMONELLA TYPHIMURIUM, Strain/Indicator: TA100, Metabolic Activation: NONE, Method: PREINCUBATION
[3] = Test System: Ames Salmonella typhimurium, Strain/Indicator: TA98, Metabolic Activation: None, Method: Preincubation
[4] = Test System: Ames Salmonella typhimurium, Strain/Indicator: TA100, Metabolic Activation: None, Method: Preincubation
[5] = Test System: Ames Salmonella typhimurium, Strain/Indicator: TA1535, Metabolic Activation: None, Method: Preincubation
[6] = Test System: AMES SALMONELLA TYPHIMURIUM, Strain/Indicator: TA98, Metabolic Activation: NONE, Method: STANDARD PLATE
[7] = Test System: AMES SALMONELLA TYPHIMURIUM, Strain/Indicator: TA98, Metabolic Activation: RAT, LIVER, S-9, AROCLOR 1254, Method: STANDARD PLATE
[8] = Test System: AMES SALMONELLA TYPHIMURIUM, Strain/Indicator: TA100, Metabolic Activation: NONE, Method: STANDARD PLATE
[9] = Test System: AMES SALMONELLA TYPHIMURIUM, Strain/Indicator: TA100, Metabolic Activation: RAT, LIVER, S-9, AROCLOR 1254, Method: STANDARD PLATE

In the case of CC(=O)/C=C/C1=C(C)CCCC1(C)C, the mutagenic call (Test System: AMES SALMONELLA TYPHIMURIUM, Strain/Indicator: TA98, Metabolic Activation: HAMSTER, LIVER, S-9, AROCLOR 1254 (10%), Method: PREINCUBATION) is reported as “inactive; negative”, the mutagenic call [1] is reported as “inactive; negative” and the mutagenic call (Test System: AMES SALMONELLA TYPHIMURIUM, Strain/Indicator: TA98, Metabolic Activation: RAT, LIVER, S-9, AROCLOR 1254 (10%), Method: PREINCUBATION) is reported as “inactive; negative”. The mutagenic call (Test System: AMES SALMONELLA TYPHIMURIUM, Strain/Indicator: TA100, Metabolic Activation: HAMSTER, LIVER, S-9, AROCLOR 1254 (10%), Method: PREINCUBATION) was “inactive; negative”, the mutagenic call [2] was “inactive; negative” and the mutagenic call (Test System: AMES SALMONELLA TYPHIMURIUM, Strain/Indicator: TA100, Metabolic Activation: RAT, LIVER, S-9, AROCLOR 1254 (10%), Method: PREINCUBATION) was “inactive; negative”. The mutagenic call (Test System: AMES SALMONELLA TYPHIMURIUM, Strain/Indicator: TA1535, Metabolic Activation: HAMSTER, LIVER, S-9, AROCLOR 1254 (10%), Method: PREINCUBATION) was “inactive; negative”, the mutagenic call (Test System: AMES SALMONELLA TYPHIMURIUM, Strain/Indicator: TA1535, Metabolic Activation: NONE, Method: PREINCUBATION) was “inactive; negative” and the mutagenic call (Test System: AMES SALMONELLA TYPHIMURIUM, Strain/Indicator: TA1535, Metabolic Activation: RAT, LIVER, S-9, AROCLOR 1254 (10%), Method: PREINCUBATION) was “inactive; negative”. For the same molecule, the mutagenic call (Test System: AMES SALMONELLA TYPHIMURIUM, Strain/Indicator: TA1537, Metabolic Activation: HAMSTER, LIVER, S-9, AROCLOR 1254 (10%), Method: PREINCUBATION) was “inactive; negative”, the mutagenic call (Test System: AMES SALMONELLA TYPHIMURIUM, Strain/Indicator: TA1537, Metabolic Activation: NONE, Method: PREINCUBATION) was “inactive; negative” and the mutagenic call (Test System: AMES SALMONELLA TYPHIMURIUM, Strain/Indicator: TA1537, Metabolic Activation: RAT, LIVER, S-9, AROCLOR 1254 (10%), Method: PREINCUBATION) was “inactive; negative”. The mutagenic call (Test System: Ames Salmonella typhimurium, Strain/Indicator: TA97a, Metabolic Activation: None, Method: Preincubation) was “inactive; negative”, the mutagenic call (Test System: Ames Salmonella typhimurium, Strain/Indicator: TA97a, Metabolic Activation: None, Method: Standard plate) was “inactive; negative” and the mutagenic call (Test System: Ames Salmonella typhimurium, Strain/Indicator: TA97a, Metabolic Activation: Rat, Liver, S-9, Aroclor 1254, Method: Preincubation) was “inactive; negative”. The mutagenic call (Test System: Ames Salmonella typhimurium, Strain/Indicator: TA97a, Metabolic Activation: Rat, Liver, S-9, Aroclor 1254, Method: Standard plate) was “inactive; negative”, the mutagenic call [3] was “inactive; negative” and the mutagenic call (Test System: Ames Salmonella typhimurium, Strain/Indicator: TA98, Metabolic Activation: None, Method: Standard plate) was “inactive; negative”. The mutagenic call (Test System: Ames Salmonella typhimurium, Strain/Indicator: TA98, Metabolic Activation: Rat, Liver, S-9, Aroclor 1254, Method: Preincubation) was “inactive; negative”, the mutagenic call (Test System: Ames Salmonella typhimurium, Strain/Indicator: TA98, Metabolic Activation: Rat, Liver, S-9, Aroclor 1254, Method: Standard plate) was “inactive; negative” and the mutagenic call [4] was “inactive; negative”. The mutagenic call (Test System: Ames Salmonella typhimurium, Strain/Indicator: TA100, Metabolic Activation: None, Method: Standard plate) was “inactive; negative”, the mutagenic call (Test System: Ames Salmonella typhimurium, Strain/Indicator: TA100, Metabolic Activation: Rat, Liver, S-9, Aroclor 1254, Method: Preincubation) was “inactive; negative” and the mutagenic call (Test System: Ames Salmonella typhimurium, Strain/Indicator: TA100, Metabolic Activation: Rat, Liver, S-9, Aroclor 1254, Method: Standard plate) was “inactive; negative”. The mutagenic call [5] was “inactive; negative”, the mutagenic call (Test System: Ames Salmonella typhimurium, Strain/Indicator: TA1535, Metabolic Activation: None, Method: Standard plate) was “inactive; negative” and the mutagenic call (Test System: Ames Salmonella typhimurium, Strain/Indicator: TA1535, Metabolic Activation: Rat, Liver, S-9, Aroclor 1254, Method: Preincubation) was “inactive; negative”. For the same molecule, the mutagenic call (Test System: Ames Salmonella typhimurium, Strain/Indicator: TA1535, Metabolic Activation: Rat, Liver, S-9, Aroclor 1254, Method: Standard plate) was “inactive; negative”.
With COC(=O)COc1ccc(Cl)cc1Cl the mutagenic call (Test System: AMES SALMONELLA TYPHIMURIUM, Strain/Indicator: TA97, Metabolic Activation: NONE, Method: STANDARD PLATE) was “inactive; negative”, the mutagenic call (Test System: AMES SALMONELLA TYPHIMURIUM, Strain/Indicator: TA97, Metabolic Activation: RAT, LIVER, S-9, AROCLOR 1254, Method: STANDARD PLATE) was “inactive; negative” and the mutagenic call [6] was “inactive; negative”. The mutagenic call [7] was “inactive; negative”, the mutagenic call [8] was “inactive; negative” and the mutagenic call [9] was “inactive; negative”. The mutagenic call (Test System: AMES SALMONELLA TYPHIMURIUM, Strain/Indicator: TA102, Metabolic Activation: NONE, Method: STANDARD PLATE) was “inactive; negative” and the mutagenic call (Test System: AMES SALMONELLA TYPHIMURIUM, Strain/Indicator: TA102, Metabolic Activation: RAT, LIVER, S-9, AROCLOR 1254, Method: STANDARD PLATE) was “inactive; negative”.
In the case of O=C(Cl)C(Cl)Cl, the mutagenic call (Test System: AMES SALMONELLA TYPHIMURIUM, Strain/Indicator: TA98, Metabolic Activation: HAMSTER, LIVER, S-9, AROCLOR 1254 (30%), Method: PREINCUBATION) is reported as “inactive; negative”, the mutagenic call [1] is reported as “inactive; negative” and the mutagenic call (Test System: AMES SALMONELLA TYPHIMURIUM, Strain/Indicator: TA98, Metabolic Activation: RAT, LIVER, S-9, AROCLOR 1254 (30%), Method: PREINCUBATION) is reported as “inactive; negative”. For the same molecule, the mutagenic call (Test System: AMES SALMONELLA TYPHIMURIUM, Strain/Indicator: TA100, Metabolic Activation: HAMSTER, LIVER, S-9, AROCLOR 1254 (30%), Method: PREINCUBATION) was “inactive; negative”, the mutagenic call (Test System: AMES SALMONELLA TYPHIMURIUM, Strain/Indicator: TA100, Metabolic Activation: NONE, Method: BAG VAPORIZATION) was “active; positive” and the mutagenic call [2] was “active; positive”. For the same molecule, the mutagenic call (Test System: AMES SALMONELLA TYPHIMURIUM, Strain/Indicator: TA100, Metabolic Activation: RAT, LIVER, S-9, AROCLOR 1254 (30%), Method: PREINCUBATION) was “inactive; negative” and the mutagenic call (Test System: AMES SALMONELLA TYPHIMURIUM, Strain/Indicator: TA100, Metabolic Activation: RAT, LIVER, S-9, AROCLOR 1254, Method: BAG VAPORIZATION) was “inactive; negative”.
With CCN(CC)C(=S)SSC[C@H](NC(C)=O)C(=O)O the mutagenic call [1] was “inactive; negative”, the mutagenic call [6] was “inactive; negative” and the mutagenic call (Test System: AMES SALMONELLA TYPHIMURIUM, Strain/Indicator: TA98, Metabolic Activation: RAT, LIVER, S-9, AROCLOR 1254, Method: PREINCUBATION) was “inactive; negative”. The mutagenic call [7] was “inactive; negative”, the mutagenic call [2] was “inactive; negative” and the mutagenic call [8] was “inactive; negative”. For the same molecule, the mutagenic call (Test System: AMES SALMONELLA TYPHIMURIUM, Strain/Indicator: TA100, Metabolic Activation: RAT, LIVER, S-9, AROCLOR 1254, Method: PREINCUBATION) was “inactive; negative” and the mutagenic call [9] was “inactive; negative”.
With CCCCNC(=O)c1cc(N)ccc1Oc1ccc(C)cc1 the mutagenic call [3] was “inactive; negative. data for pa31 mentioned in abstract only”, the mutagenic call (Test System: Ames Salmonella typhimurium, Strain/Indicator: TA98, Metabolic Activation: Rat, Liver, S-9, Phenobarbital and beta-naphthoflavone, Method: Preincubation) was “active; positive” and the mutagenic call [4] was “inactive; negative. data for pa31 mentioned in abstract only”. The mutagenic call (Test System: Ames Salmonella typhimurium, Strain/Indicator: TA100, Metabolic Activation: Rat, Liver, S-9, Phenobarbital and beta-naphthoflavone, Method: Preincubation) was “active; positive”, the mutagenic call (Test System: Ames Salmonella typhimurium, Strain/Indicator: TA102, Metabolic Activation: None, Method: Preincubation) was “inactive; negative. data for pa31 mentioned in abstract only” and the mutagenic call [5] was “inactive; negative. data for pa31 mentioned in abstract only”. For the same molecule, the mutagenic call (Test System: Ames Salmonella typhimurium, Strain/Indicator: TA1537, Metabolic Activation: None, Method: Preincubation) was “inactive; negative. data for pa31 mentioned in abstract only”.
C=CCCC1CO1 (stereo unspecified) was tested, and the mutagenic call [8] was “active; positive” and the mutagenic call (Test System: AMES SALMONELLA TYPHIMURIUM, Strain/Indicator: TA1535, Metabolic Activation: NONE, Method: STANDARD PLATE) was “active; positive”.
